Results: article PMC3277506, “Extra-Renal Elimination of Uric Acid via Intestinal Efflux Transporter BCRP/ABCG2” (PLoS ONE, 2012)
Read-outs that look alike come from different tables or passages of the source.

Tests used:
Caco-2 cells = experiment: Bidirectional transcellular transport of [14C]uric acid in Caco-2 cells; type: in vitro ADME, human; conditions: elacridar 2 µM, Ko143 1 µM, verapamil 100 µM, MK571 10 µM
Procedure: Caco-2 cells were obtained from the American Type Culture Collection (Rockville, MD). Caco-2 cells were cultured in Dulbecco's modified Eagle's medium (D-MEM) (Invitrogen, Carlsbad, CA) supplemented with 10% (v/v) fetal bovine serum (Invitrogen), 100 units/mL benzylpenicillin, 100 µg/mL streptomycin, 1% (v/v) MEM non-essential amino acid solution (Invitrogen) at 37°C under an atmosphere of 5% CO2 in air. For bidirectional transport studies, Caco-2 cells were cultured on Transwell filter membrane inserts (BD Falcon, surface area 0.9 cm^2 and pore size 3 µm) at a density of 6.4×10^4 cells/cm^2 for 21 days before use for each experiment. […] Inhibitor was added to only apical side. Transport of [^14C]uric acid was measured in two directions, namely apical (AP)-to-basal (BL) and BL-to-AP directions. An aliquot of transport buffer was obtained from the donor side at 5 min for measurement of initial concentration, and from the receiver side at 30, 60, 90 and 120 min. Transport studies were performed at 37°C and pH 7.4.
The apparent permeability (Papp, cm/sec) of [^14C]uric acid across the cell monolayer was calculated using the following equation: [drawing 4] where Q is the amount of [^14C]uric acid transported over time t. Cd is the initial concentration in the donor side and A is the surface area of membrane.

rBcrp [1] = molecular target: T1, rBcrp (Rattus norvegicus, UniProt Q80W57); experiment: [14C]uric acid uptake by rBcrp-expressing membrane vesicles; type: biochemical; parameters: purchased GenoMembrane Inc. (Yokohama, Japan); host or cells: Sf9 cells; conditions: [14C]uric acid uptake by vesicles, inhibitor concentrations only in Fig. 2C
T1 sequence (Q80W57 1-657): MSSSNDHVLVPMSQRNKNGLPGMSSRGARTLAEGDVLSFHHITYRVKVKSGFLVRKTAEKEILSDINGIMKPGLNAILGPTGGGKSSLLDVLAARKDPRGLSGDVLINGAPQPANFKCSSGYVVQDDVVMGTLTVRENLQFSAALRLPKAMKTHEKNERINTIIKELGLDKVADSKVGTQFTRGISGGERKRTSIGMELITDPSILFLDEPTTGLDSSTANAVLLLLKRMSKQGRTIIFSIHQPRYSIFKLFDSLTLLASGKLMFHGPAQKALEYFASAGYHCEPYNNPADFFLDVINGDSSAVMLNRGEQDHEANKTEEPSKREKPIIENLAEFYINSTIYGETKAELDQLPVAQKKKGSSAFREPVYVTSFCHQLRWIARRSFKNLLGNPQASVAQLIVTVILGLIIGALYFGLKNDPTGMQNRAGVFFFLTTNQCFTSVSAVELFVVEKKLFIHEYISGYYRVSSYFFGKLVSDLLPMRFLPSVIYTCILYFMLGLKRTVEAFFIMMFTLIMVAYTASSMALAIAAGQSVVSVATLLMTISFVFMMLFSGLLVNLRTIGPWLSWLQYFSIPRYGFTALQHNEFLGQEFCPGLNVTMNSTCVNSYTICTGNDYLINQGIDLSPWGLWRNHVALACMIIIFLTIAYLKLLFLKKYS
Procedure: hBCRP/rBcrp, hMRP2/rMrp2, or hMDR1-expressing membrane vesicles prepared from Sf9 cells were purchased from GenoMembrane Inc. (Yokohama, Japan). Uptake experiments were conducted as described previously. Briefly, after a pre-incubation for 5 min at 37°C, membrane vesicles (50 µg protein/50 µL final reaction volume) were incubated for 5 min at 37°C in the presence of 4 mM ATP or AMP in assay buffer (1 M KCl, 1 M MgCl2, and 100 mM MOPS-Tris, pH 7.0) containing [^14C]uric acid (1 µCi/mL). The uptake reaction was terminated by adding 1 mL ice-cold washing buffer (1 M KCl, and 100 mM MOPS-Tris, pH 7.0) to the membrane solution, and the mixture was rapidly filtered through a nitrocellulose filter (0.45 µm pore size, Millipore, Bedford, MA). The filters were washed twice with 5 mL ice-cold washing buffer. The filters were dried and dissolved in Clearsol-I for quantitation of radioactivity.

rBcrp [2] = molecular target: T1, rBcrp; experiment: Effect of elacridar on intestinal secretion of uric acid, in situ intestinal closed loop method, oxonate-treated rats; type: in vivo; conditions: for Intestinal secretory clearance of uric acid, % of that in elacridar-untreated rats: 10 µM elacridar (Fig. 1A); for Intestinal secretory clearance of uric acid in the presence of elacridar: 10 µM elacridar, oxonate-treated rats
Procedure: We evaluated intestinal secretion of endogenous uric acid according to the method described previously, with some modifications. Rats were anesthetized with 50% urethane and treated with oxonate by the same method as in the in vivo animal study described above. Intestinal closed loops were made at different segments: jejunum (10 cm), ileum (10 cm), and colon (3–5 cm). Phosphate-buffered solution (PB, 0.075 M NaH2PO4 - 0.075 M Na2HPO4, pH 6.5) or inhibitor-containing PB was injected into the intestinal loop. After 60 min, the remaining luminal content in each loop was washed out and collected for quantitation. Blood was obtained from the jugular vein at 1, 20, 40 and 60 min. Plasma was obtained by centrifugation and used for quantitation.
The following equation was used to calculate intestinal secretory clearance (µL/min/cm loop) and estimated total intestinal secretory clearance (CLintestine, estimated) (mL/min): [drawing 1] [drawing 2] [drawing 3] where A is the amount of uric acid secreted into the intestinal lumen of each loop for 60 min, L is the length of the intestine, and AUC is area under the plasma concentration-time curve.

[3] = cited from earlier work
[4] = substrate: O=c1[nH]c(=O)c2[nH]c(=O)[nH]c2[nH]1; experiment: [14C]uric acid uptake by rBcrp-expressing membrane vesicles; type: biochemical, rat; conditions: other: ATP-dependent uptake, maximum uric acid concentration 5 mM; pH 7.0; 37.0 °C

With `COc1ccc2c3c([nH]c2c1)[C@H](CC(C)C)N1C(=O)[C@H](CCC(=O)OC(C)(C)C)NC(=O)[C@@H]1C3` [Ko143, reference compound] the “Effect on polarized transport of uric acid across Caco-2 cell monolayer” value (from here on “Effect on polarized transport”) (Caco-2 cells) was “significantly reduced” and the “Inhibition of rBcrp-mediated transport of uric acid” value (from here on “Inhibition”) (rBcrp [1]) was “strongly inhibited”.

In the case of `COc1cc2c(cc1OC)CN(CCc1ccc(NC(=O)c3cccc4c(=O)c5cccc(OC)c5[nH]c34)cc1)CC2` [elacridar], the “Effect on polarized transport” value (Caco-2 cells) is reported as “significantly reduced”, the “Inhibition” value (rBcrp [1]) is reported as “strongly inhibited” and the “Intestinal secretory clearance of uric acid, % of that in elacridar-untreated rats” value (rBcrp [2]; colon) is reported as 30%. For the same molecule, the “Intestinal secretory clearance of uric acid in the presence of elacridar” value (shortened to “Intestinal secretory clearance … of elacridar”) (rBcrp [2]; colon) was 0.23±0.04 µL/min/cm loop, the “Ileal secretion of uric acid, % of the control” value (rBcrp [2]; ileum, 0.1 µM elacridar (Fig. 3A)) was 53% and the “Intestinal secretory clearance of uric acid, % of that in elacridar-untreated rats” value (rBcrp [2]; ileum) was 52%. The “Intestinal secretory clearance … of elacridar” value (rBcrp [2]; ileum) was 0.82±0.12 µL/min/cm loop, the “Intestinal secretory clearance of uric acid, % of that in elacridar-untreated rats” value (rBcrp [2]; jejunum) was 55% and the “Intestinal secretory clearance … of elacridar” value (rBcrp [2]; jejunum) was 0.27±0.04 µL/min/cm loop.

With `CO[C@H]1/C=C/O[C@@]2(C)Oc3c(C)c(O)c4c(O)c(c(/C=N/N5CCN(C)CC5)c(O)c4c3C2=O)NC(=O)/C(C)=C\C=C\[C@H](C)[C@H](O)[C@@H](C)[C@@H](O)[C@@H](C)[C@H](OC(C)=O)[C@@H]1C` [rifampicin] the “Inhibition” value (rBcrp [1]) was “moderately”.

For `CCCCc1nc(Cl)c(CO)n1Cc1ccc(-c2ccccc2-c2nn[nH]n2)cc1` [losartan], the “Effect on SUA level” value ([3]; drugs in clinical use) is given as “decrease”.

With `C[C@]12CC[C@@H]3c4ccc(OS(=O)(=O)O)cc4CC[C@H]3[C@@H]1CCC2=O` [estrone-3-sulfate] the “Inhibition” value (rBcrp [1]) was “strongly inhibited”.

With `CC(C(=O)O)c1cccc(C(=O)c2ccccc2)c1` (centres unmarked) [ketoprofen] the “Inhibition” value (rBcrp [1]) was “not affected”.

For `CN(C)C(=O)CCSC(SCCC(=O)O)c1cccc(/C=C/c2ccc3ccc(Cl)cc3n2)c1` (centres unmarked) [MK571, reference compound], the “Effect on polarized transport” value (Caco-2 cells) was “significantly reduced”.

For `O=C(O)c1ccccc1O` [salicylic acid], the “Inhibition” value (rBcrp [1]) is listed as “not affected”, the “Effect on SUA level” value ([3]; high dose) is listed as “decrease” and the “Effect on SUA level” value ([3]; low dose) is listed as “increase”.

B1: rBcrp (Rattus norvegicus) (protein)
chain: T1 sequence (Q80W57 1-657)
notes: purchased GenoMembrane Inc. (Yokohama, Japan); host or cells: Sf9 cells
B1 showed a Km [4] of 12.5 ± 0.77 mM.
